# Experimental data as given in US20120065267A1, “COMPOSITIONS INCLUDING 3,5-L-T2 AND METHODS OF USE THEREOF” (priority 2010, published 2012).
# Where “and” joins values, the source holds several entries; their conditions need not be identical. Identical values can stand only once.
# How the values were obtained:
# [1] = Body weight of mice on Western Diet given low or high dose T2; type: in vivo; settings: for Body weight / Body weight (Ave): LDLr+/− mice
# Method: (§1) This corresponds to a dosage for an 80 kg human of about 20-200 mg/day, or a low dose of about 0.2-0.3 mg/kg of body weight to a high dose of about 2-3 mg/kg of body weight. One will appreciate, however, that some subjects (e.g., subjects having very low LDL receptor function) may receive higher doses, depending on need. likewise, some subjects may receive lower doses, which again depends on need. Mice in the study were fed a standard lab chow referred to as the “Western Diet.” The overall level of fat and the saturated nature of the fat are representative diets typical in the industrialized west that are linked to risk of cardiovascular disease in humans. The formula is used primarily with genetically manipulated rodent models that are susceptible to high cholesterol and cardiovascular disease. The diet may also be useful in diet-induced obesity, diabetes, and metabolic syndrome models. High cholesterol, obesity, and diabetes are each associated increased risk for cardiovascular disease. The composition of the Western Diet is shown below. C57 is a wild-type strain, LDLr+/− are a strain carrying one functional copy of the LDLr gene, and the LDLr0 animals are total LDLr knockouts. The LDLr gene encodes for the LDL receptor protein, which is responsible for scavenging LDL with bound cholesterol from the blood and transporting it into cells. Both heterozygous and homozygous LDLr knockout animals develop very high serum cholesterol levels and are considered to be a good model for heterozygous and homozygous familial hypercholesterolemia in humans. […] LDLr knockout animals have zero LDL receptor function.
# [2] = tested on: C57, LDLr+/− and LDLr0 mice; experiment: Serum cholesterol in mice on Western Diet given daily oral T2; type: in vivo; set-up: Cholesterol / Cholesterol (Ave): unit not given here; settings: for lowered cholesterol, average: vs vehicle; for Cholesterol (Ave): group average; for Cholesterol: individual animal
# Method: as §1
# [3] = tested on: C57, LDLr+/− and LDLr0 mice; experiment: Blood sugar (serum glucose) in mice on Western Diet given daily oral T2; type: in vivo; set-up: Blood Sugar / Blood Sugar Ave: unit not given here; settings: for Blood Sugar Ave / Blood Sugar: Western Diet
# Method: as §1
# [4] = tested on: TR β gene expression; settings: relative to T3; cited from earlier work
# [5] = tested on: rats; settings: 250 mcg/kg p.o. q.d. for 30 days, cited from earlier work
structure (smiles),measurement,setting,value
"N[C@@H](Cc1cc(I)c(Oc2ccc(O)cc2)c(I)c1)C(=O)O [T2, (2S)-2-amino-3-[4-(4-hydroxyphenoxy)-3,5-diiodophenyl]propanoic acid]",Body weight,"[1]; High Dose T2 2.5 mg/kg daily oral, Day 5, individual animal, 2.5 mg/kg, in g (unit assumed)",32.3 and 32.9 and 28.9 and 30.4 and 27.6 and 26.3
same,Body weight (Ave),"[1]; Low Dose T2 0.25 mg/kg daily oral, Day 1, group average",26.7 g
same,Body weight,"[1]; Low Dose T2 0.25 mg/kg daily oral, Day 1, individual animal, 0.25 mg/kg, in g (unit assumed)",28.2 and 29.0 and 24.7 and 26.4 and 25.0 and 26.6
same,Body weight (Ave),"[1]; Low Dose T2 0.25 mg/kg daily oral, Day 2, group average",28.1 g
same,Body weight,"[1]; Low Dose T2 0.25 mg/kg daily oral, Day 2, individual animal, 0.25 mg/kg, in g (unit assumed)",29.4 and 30.6 and 26.6 and 27.8 and 26.1 and 28.2
same,Body weight (Ave),"[1]; Low Dose T2 0.25 mg/kg daily oral, Day 3, group average",28.6 g
same,Body weight,"[1]; Low Dose T2 0.25 mg/kg daily oral, Day 3, individual animal, 0.25 mg/kg, in g (unit assumed)",29.7 and 31.4 and 27.2 and 28.1 and 26.3 and 28.8
same,Body weight (Ave),"[1]; Low Dose T2 0.25 mg/kg daily oral, Day 4, group average",27.6 g
same,Body weight,"[1]; Low Dose T2 0.25 mg/kg daily oral, Day 4, individual animal, 0.25 mg/kg, in g (unit assumed)",28.8 and 30.3 and 26.2 and 27.4 and 25.8 and 27.3
same,Body weight (Ave),"[1]; Low Dose T2 0.25 mg/kg daily oral, Day 5, group average",28.5 g
same,Body weight,"[1]; Low Dose T2 0.25 mg/kg daily oral, Day 5, individual animal, 0.25 mg/kg, in g (unit assumed)",29.5 and 31.3 and 27.3 and 28.4 and 26.6 and 27.9
same,Body weight (Ave),"[1]; Low Dose T2 0.25 mg/kg daily oral, Day 6, group average",29.2 g
same,Body weight,"[1]; Low Dose T2 0.25 mg/kg daily oral, Day 6, individual animal, 0.25 mg/kg, in g (unit assumed)",30.7 and 32.4 and 28.5 and 29.1 and 26.7 and 27.9
same,Body weight (Ave),"[1]; Low Dose T2 0.25 mg/kg daily oral, Day 7, group average",30 g
same,Body weight,"[1]; Low Dose T2 0.25 mg/kg daily oral, Day 7, individual animal, 0.25 mg/kg",31.0 and 32.7 and 29.6 (2×) and 28.2 and 29.0
same,effect on weight gain,"[1]; low and high dose T2, all genotypes",did not affect
same,"lowered cholesterol, average","[2]; C57 animals, high dose T2 2.5 mg/kg daily oral",about 67%
same,"lowered cholesterol, average","[2]; C57 animals, low dose T2 0.25 mg/kg daily oral",about 38%
same,Cholesterol (Ave),"[2]; C57 mice, 1 Week High Dose, T2 2.5 mg/kg daily oral",60.8
same,Cholesterol,"[2]; C57 mice, 1 Week High Dose, T2 2.5 mg/kg daily oral, 2.5 mg/kg",41.312 and 53.718 and 75.711 and 62.741 and 70.636
same,Cholesterol (Ave),"[2]; C57 mice, 1 Week Low Dose, T2 0.25 mg/kg daily oral",113.5
same,Cholesterol,"[2]; C57 mice, 1 Week Low Dose, T2 0.25 mg/kg daily oral, 0.25 mg/kg",96.130 and 114.249 and 104.366 and 114.798 and 137.858
same,Cholesterol (Ave),"[2]; LDLr0 mice (first group), 1 Week High Dose, T2 2.5 mg/kg daily oral",320.4
same,Cholesterol,"[2]; LDLr0 mice (first group), 1 Week High Dose, T2 2.5 mg/kg daily oral, 2.5 mg/kg",303.529 and 337.364
same,Cholesterol (Ave),"[2]; LDLr0 mice (first group), 1 Week Low Dose, T2 0.25 mg/kg daily oral",823.5
same,Cholesterol,"[2]; LDLr0 mice (first group), 1 Week Low Dose, T2 0.25 mg/kg daily oral, 0.25 mg/kg",1063.848 and 593.252 and 813.532
same,Cholesterol (Ave),"[2]; LDLr0 mice (second group), 1 Week Low Dose, T2 0.25 mg/kg daily oral",930.5
same,Cholesterol,"[2]; LDLr0 mice (second group), 1 Week Low Dose, T2 0.25 mg/kg daily oral, 0.25 mg/kg",611.760 and 750.720 and 813.250 and 1112.010 and 1167.590 and 438.070 and 1000.840 and 1549.720
same,Cholesterol (Ave),"[2]; LDLr0 mice (second group), 2 Week Low Dose, T2 0.25 mg/kg daily oral",1026.8
same,Cholesterol,"[2]; LDLr0 mice (second group), 2 Week Low Dose, T2 0.25 mg/kg daily oral, 0.25 mg/kg",996.905 and 1035.325 and 944.755 and 988.670 and 1092.965 and 524.830 and 1189.025 and 1441.530
same,"lowered cholesterol, average","[2]; LDLr knockout animals, high dose T2 2.5 mg/kg daily oral",about 80%
same,"lowered cholesterol, average","[2]; LDLr knockout animals, low dose T2 0.25 mg/kg daily oral",about 46%
same,"lowered cholesterol, average","[2]; LDLr+/− animals, high dose T2 2.5 mg/kg daily oral",about 67%
same,"lowered cholesterol, average","[2]; LDLr+/− animals, low dose T2 0.25 mg/kg daily oral",about 26%
same,Cholesterol (Ave),"[2]; LDLr+/− mice, 1 Week High Dose, T2 2.5 mg/kg daily oral",93.8
same,Cholesterol,"[2]; LDLr+/− mice, 1 Week High Dose, T2 2.5 mg/kg daily oral, 2.5 mg/kg",84.169 and 99.395 and 103.342 and 102.778 and 66.124 and 107.29
same,Cholesterol (Ave),"[2]; LDLr+/− mice, 1 Week Low Dose, T2 0.25 mg/kg daily oral",188.8
same,Cholesterol,"[2]; LDLr+/− mice, 1 Week Low Dose, T2 0.25 mg/kg daily oral, 0.25 mg/kg",185.075 and 229.548 and 196.605 and 160.917 and 172.447 and 188.370
same,Blood Sugar Ave,"[3]; C57 mice, 1 Week High Dose T2, group average",110.0
same,Blood Sugar,"[3]; C57 mice, 1 Week High Dose T2, individual animals",74 and 158 and 106 and 120 and 92
same,Blood Sugar Ave,"[3]; C57 mice, 1 Week Low Dose T2, group average",170.0
same,Blood Sugar,"[3]; C57 mice, 1 Week Low Dose T2, individual animals",151 and 203 and 186 and 190 and 120
same,Blood Sugar Ave,"[3]; LDLr0 mice, 1 Week High Dose T2, group average",94.0
same,Blood Sugar,"[3]; LDLr0 mice, 1 Week High Dose T2, individual animals",87 and 101
same,Blood Sugar Ave,"[3]; LDLr0 mice, 1 Week Low Dose T2, group average",92.0
same,Blood Sugar,"[3]; LDLr0 mice, 1 Week Low Dose T2, individual animals",143 and 54 and 79
same,Blood Sugar Ave,"[3]; LDLr+/− mice, 1 Week High Dose T2, group average",101.0
same,Blood Sugar,"[3]; LDLr+/− mice, 1 Week High Dose T2, individual animals",108 and 99 and 112 and 94 and 113 and 80
same,Blood Sugar Ave,"[3]; LDLr+/− mice, 1 Week Low Dose T2, group average",201.0
same,Blood Sugar,"[3]; LDLr+/− mice, 1 Week Low Dose T2, individual animals",202 and 146 and 235 and 171 and 242 and 210
same,"lowered blood sugar levels, average","[3]; all genetic groups (C57, LDLr+/−, LDLr0), high dose T2 2.5 mg/kg daily oral, vs controls",45-50%
same,less potent than T3 in decreasing TR β gene expression,[4],50%
same,decrease in body weight,[5]; compared to controls,13%
same,decrease in hepatic fat mass,[5]; compared to controls,50%
same,increase in hepatic fat oxidation,[5]; compared to controls,42%
same,lowering of cholesterol,[5]; compared to controls,18%
same,lowering of serum triglycerides,[5]; compared to controls,52%
same,"heart rate, thyroid gland or heart weight, TSH, free T3, free T4, TSH response to TRH",[5],not accompanied by an increase in heart rate
